# Assay results taken from patent US20220007646A1, “METHOD TO CONTROL A PHYTHOPATOGENIC FUNGI SELECTED FROM UNCINULA NECATOR, PLASMOPARA VITICOLA AND GLOEOSPORIUM AMPELOPHAGUM IN GRAPES BY COMPOSITIONS COMPRISING MEFENTRIFLUCONAZOLE” (BASF AGRO B.V., priority 2018, published 2022).
# How the values were obtained:
# Plasmopara viticola = experiment: Green house: fungicidal control of grape downy mildew caused by Plasmopara viticola (PLASVI P4); type: in vivo; conditions: grape plants sprayed, inoculated after four days
# Description: Fungicidal Control of Grape Downy Mildew Caused by Plasmopara viticola […]4) Grape cuttings were grown in pots to the 4 to 5 leaf stage. These plants were sprayed to run-off with a spray solution, containing the concentration of active ingredient or their mixture mentioned in the table below. The plants were allowed to air-dry and cultivated in a greenhouse for four days. Then they were inoculated with an aqueous spore suspension of Plasmopara viticola by spraying it at the lower leaf-side. Then the trial plants were immediately transferred for 24 h to a humid chamber with 22-24° C. and a and a saturated relative humidity. For a period of 5 days, cultivation followed in a greenhouse at 20-25° C. and a relative humidity about 50-80%. To stimulate the outbreak of the disease symptoms, the plants were transferred to a humid chamber again for 24 hours. Then the extent of fungal attack on the lower leaf surface was visually assessed as % diseased leaf area. The disease ratings were converted into efficacies. […] The expected efficacies of active compound mixtures were determined using Colby's formula [R. S. Colby, “Calculating synergistic and antagonistic responses of herbicide combinations”, Weeds 15, 20-22 (1967)] and compared with the observed efficacies.
# Uncinula necator = experiment: Green house: control of powdery mildew on grape caused by Uncinula necator (UNCINE P7); type: in vivo; conditions: grape plants sprayed, inoculated 7 days later, assessed after 22 days
# Description: Control of Powdery Mildew on Grape Caused by Uncinula necator ([…]7) Grape cuttings were grown in pots to the 4 to 5 leaf stage. These plants were sprayed to run-off with a spray solution, containing the concentration of active ingredient or their mixture mentioned in the table below. Seven days later the treated plants were inoculated with spores of Uncinula necator by shaking heavily infested stock plants over the treated pots. After cultivation in the greenhouse for 22 days at 21-23° C. and a relative humidity between 40 to 70% the extent of fungal attack on the leaves was visually assessed as % diseased leaf area. The disease ratings were converted into efficacies. […] The expected efficacies of active compound mixtures were determined using Colby's formula [R. S. Colby, “Calculating synergistic and antagonistic responses of herbicide combinations”, Weeds 15, 20-22 (1967)] and compared with the observed efficacies.
# [1] = application rate 5 g/ha, 0 = as untreated, 100 = not infected
smiles,measurement,setting,value
"Cc1cc(C(F)(F)F)nn1CC(=O)N1CCC(c2nc(C3=NOC(c4c(F)cccc4F)C3)cs2)CC1 (centres unmarked) [II-9, oxathiapiprolin]",Observed efficacy,Plasmopara viticola; application rate 0.1 g/ha,18
"CC(O)(Cn1cncn1)c1ccc(Oc2ccc(Cl)cc2)cc1C(F)(F)F (centres unmarked) [I, mefentrifluconazole]",Observed efficacy,Uncinula necator; [1],72
same,Observed efficacy,Plasmopara viticola; application rate 1 g/ha,2
same,Observed efficacy,Plasmopara viticola; [1],1
"Cn1cc(C(=O)Nc2ccccc2-c2cc(F)c(F)c(F)c2)c(C(F)F)n1 [II-6, fluxapyroxad]",Observed efficacy,Uncinula necator; application rate 0.5 g/ha,52
